Reference: patent US20080182830A1, “Agent for Treatment and Prevention of Endometriosis and Uterine Adenomyosis” (priority 2005, published 2008)

How the values were obtained:
uterine adenomyosis [1] = assay: Therapy of uterine adenomyosis (1), single patient; type: in vivo, human
Description: A patient having uterine adenomyosis was subjected to the treatment using the therapeutic agent according to the present invention. The patient had been subjected to injection of Leuplin, which was a therapeutic drug for endometriosis at one time per a month continuously for six months. However, the disease was not cured. Then, the uterus was enlarged to have a size corresponding to the third month of pregnancy, and menstrual pain was severe, and a menstrual bleeding was abundant. Moreover, CA125 in the blood indicated 441 units (the normal units are 35 units or less) and CA602 indicated 1025 units (the normal value is 63 units or less). The indicated values were abnormally high.
The menstrual pain and the hypermenorrhea disappeared. Moreover, CA125 in the blood was reduced to be 38 units and CA602 was reduced to 53 units after 60 days from the initiation of the administration. Accordingly, it can be said that the uterine adenomyosis was fully cured.

vaginal endometriosis = assay: Therapy of vaginal endometriosis, vaginal ring; type: in vivo, human
Experimental: A patient having endometriosis recurred after operation of the left ovary and Cul-de-Sac endometriosis was subjected to the treatment using the therapeutic agent according to the present invention. In the patient with an induration about 7 cm×about 5 cm in a deep right posterior fornix of the vagina. […] Moreover, menstrual pain, extramenstrual pain, severe lower abdominal pain, defecation pain, and coital pain were recognized. Accordingly, the above-described doughnut-type ring containing 9 mg 3-ethylpyridine was inserted into the posterior vaginal fornix. As a result, four weeks after the insertion, the coital pain, the defecation pain, the extramenstrual lower abdominal pain and low back pain disappeared, and the menstrual pain was reduced. The induration at the right posterior fornix of the vagina was scaled down to 4 cm×2 cm. Then, by continuous treatment, the induration at the right posterior fornix of the vagina was further scaled down to have 2 cm×1 cm. In addition to the above case, with respect to each of patients of other two cases having endometriosis, the pathological endometriosis was confirmed by biopsy and then, a vaginal ring containing 8 to 10 mg of 3-ethylpyridine was inserted into the vagina.

ovarian chocolate cyst = assay: Therapy of ovarian chocolate cyst, injection into aspirated cyst; type: in vivo, human
Description: A patient having ovarian chocolate cyst was subjected to the treatment using the therapeutic agent according to the present invention. In this patient, by transvaginal ultrasonic diagnosis, the cyst having a diameter of 6 cm was recognized in Cul-de-Sac. Moreover, CA125 in the blood indicated 1522 units and CA602 indicated 352 units (the normal value is 63 units or less). The indicated values were abnormally high. It was confirmed that the distance from the vaginal fornix to cyst was within 1 cm, and under observation with a transvaginal ultrasonography, the cyst content was punctured with a needle from the posterior vaginal fornix and was aspirated. Then, the 2 mL ethanol solution containing 2 mg of 3-ethyl pyridine was injected. As a result, the ovarian chocolate cyst disappeared four weeks after the injection. The uterus was scaled down to 2.5 cm. The menstrual pain disappeared. Moreover, CA125 in the blood was lowered to be 52 units and CA602 was lowered to be 61 units.
In addition to the above case, patients of other 12 cases having chocolate cysts were subjected to the following treatment. That is, under a transvaginal ultrasonic guide, the ovarian chocolate cyst having a distance within 10 mm from the posterior vaginal fornix was punctured and the cyst content was aspirated and then the 3 mL ethyl ether solution containing 3 mg of 3-ethylpyridine was injected into the cyst. As a result, in all 12 cases, the ovarian chocolate cyst was scaled down, and at the same time, the menstrual pain disappeared in eight cases, and, improved in three cases. […] In addition, existence of malignant cells in the aspirated cystic content was denied by cytodiagnosis.

[2] = test system: chorioallantoic membrane of chicken; conditions: Lin J. et al. 2002; G. Melkonian et al. 2004; cited from earlier work
deep endometriosis [3] = assay: Therapy of deep endometriosis (1), single patient, vaginal rings; type: in vivo, human
Description: A patient suffered from intensive menstrual pain by deep endometriosis was subjected to the treatment using the therapeutic agent according to the present invention.

deep endometriosis [4] = assay: Therapy of deep endometriosis (2), 18 cases, vaginal ring; type: in vivo, human
Experimental: A vaginal ring containing 8 to 10 mg of 3-ethylpyridine was inserted into the vagina of each of deep endometriosis patients (18 cases) for 3 months. As a result, disappearance of pressure pain and induration in Cul-de-Sac was recognized in 9 cases, and improvement thereof was recognized in 7 cases, and nullity thereof was recognized in 2 cases. The menstrual pain disappeared in 4 cases, and improved in 13 cases and null in only one case. A coital pain disappeared in 10 cases and a defecation pain was improved in 7 cases.

uterine adenomyosis [5] = assay: Therapy of uterine adenomyosis (2), patient series with intrauterine devices; type: in vivo, human
Experimental: An intrauterine device (IUD) containing 600 μg to 900 μg of 3-ethylpyridine was inserted for 6 months […] of each of patients (12 cases) having uterine adenomyosis recurring after the nasal administration or injection of GnRH analogs.

[6] = doughnut-type ring 9 mg, four weeks after insertion
[7] = other two cases, vaginal ring containing 8 to 10 mg
[8] = other 12 cases, 3 mL ethyl ether solution containing 3 mg
[9] = single patient, 2 mL ethanol solution containing 2 mg injected
[10] = IUD-type device containing 825 μg
[11] = IUD-type device containing 825 μg inserted into the uterus
[12] = vaginal ring 10 mg 3-ethylpyridine, after the danazol ring
[13] = vaginal ring 8 to 10 mg for 3 months
[14] = IUD containing 600 μg to 900 μg, 6 months, 12 cases
[15] = vaginal ring 1,000 mg danazol for 6 months

**Q.** For `CCNC(=O)[C@@H]1CCCN1C(=O)[C@H](CCCNC(=N)N)NC(=O)[C@H](CC(C)C)NC(=O)[C@@H](CC(C)C)NC(=O)[C@H](Cc1ccc(O)cc1)NC(=O)[C@H](CO)NC(=O)[C@H](Cc1c[nH]c2ccccc12)NC(=O)[C@H](Cc1c[nH]cn1)NC(=O)[C@@H]1CCC(=O)N1` [Leuplin, reference compound], which “disease (uterine adenomyosis) outcome” value (uterine adenomyosis [1]; patient, injection one time per month continuously for six months) is on record?
**A.** not cured

**Q.** With `CCc1cccnc1` [3-ethylpyridine] as the compound, how does the defecation pain (vaginal endometriosis; [6]) read?
**A.** disappeared

**Q.** What about the “extramenstrual lower abdominal pain and low back pain” value (vaginal endometriosis; [6]) of the same compound?
**A.** disappeared

**Q.** What about the menstrual pain (vaginal endometriosis; [6]) of the same compound?
**A.** reduced

**Q.** What about the “menstrual pain and defecation pain” value (vaginal endometriosis; [7]) of the same compound?
**A.** disappeared in all the cases

**Q.** And the vaginal endometriosis (vaginal endometriosis; [7])?
**A.** disappeared macroscopically and histologically in all two cases

**Q.** And the coital pain (vaginal endometriosis; patient, doughnut-type ring containing 9 mg in posterior vaginal fornix, four weeks after insertion)?
**A.** disappeared

**Q.** What about the “cyst enlarged again after the six months” value (ovarian chocolate cyst; [8]) of the same compound?
**A.** three

**Q.** And the menstrual pain disappeared (ovarian chocolate cyst; [8])?
**A.** eight

**Q.** What about the menstrual pain improved (ovarian chocolate cyst; [8]) of the same compound?
**A.** three

**Q.** What about the “ovarian chocolate cyst scaled down” value (ovarian chocolate cyst; other 12 cases, 3 mL ethyl ether solution containing 3 mg injected into the cyst) of the same compound?
**A.** 12 cases

**Q.** And the “CA602 in the blood” value (ovarian chocolate cyst; single patient, 2 mg injected, before 352 units, normal 63 units or less)?
**A.** 61 units

**Q.** And the “CA125 in the blood” value (ovarian chocolate cyst; single patient, 2 mg injected, before 1522 units)?
**A.** 52 units

**Q.** What about the menstrual pain (ovarian chocolate cyst; [9]) of the same compound?
**A.** disappeared

**Q.** What about the “uterus scaled down to” value (ovarian chocolate cyst; [9]) of the same compound?
**A.** 2.5 cm

**Q.** What about the ovarian chocolate cyst (ovarian chocolate cyst; single patient, 2 mL ethanol solution containing 2 mg injected after aspiration, four weeks after injection, cyst diameter 6 cm before) of the same compound?
**A.** disappeared

**Q.** And the “ovary chocolate cyst outcome after repeated puncture and injection” value (ovarian chocolate cyst; the three cases enlarged again after six months)?
**A.** could be cured

**Q.** And the “growth of chorioallantoic membrane of chicken” value [2]?
**A.** inhibits the growth

**Q.** And the “CA125 in the blood” value (uterine adenomyosis [1]; IUD-type device 825 μg, after 60 days from initiation, before 441 units, normal 35 units or less)?
**A.** 38 units

**Q.** And the “CA602 in the blood” value (uterine adenomyosis [1]; IUD-type device 825 μg, after 60 days from initiation, before 1025 units, normal 63 units or less)?
**A.** 53 units

**Q.** What about the “recurrence after suspension of the treatment” value (uterine adenomyosis [1]; [10]) of the same compound?
**A.** not recognized

**Q.** What about the uterine adenomyosis outcome (uterine adenomyosis [1]; [10]) of the same compound?
**A.** fully cured

**Q.** And the hypermenorrhea (uterine adenomyosis [1]; [11])?
**A.** disappeared

**Q.** And the menstrual pain (uterine adenomyosis [1]; [11])?
**A.** disappeared

**Q.** And the “size of the uterine corpus” value (uterine adenomyosis [1]; IUD-type device containing 825 μg inserted into the uterus, six months after insertion, before: size of third month of pregnancy)?
**A.** scaled down to a normal size

**Q.** And the “induration in Cul-de-Sac” value (deep endometriosis [3]; [12])?
**A.** not scaled down

**Q.** What about the menstrual pain (deep endometriosis [3]; [12]) of the same compound?
**A.** further decreased

**Q.** What about the “CA125 in the blood” value (deep endometriosis [3]; vaginal ring containing 10 mg 3-ethylpyridine, after the danazol ring, in 3 months, from 620 units) of the same compound?
**A.** 250 units

**Q.** What about the coital pain disappeared (deep endometriosis [4]; [13]) of the same compound?
**A.** 10 cases

**Q.** And the defecation pain improved (deep endometriosis [4]; [13])?
**A.** 7 cases

**Q.** What about the “improvement of pressure pain and induration in Cul-de-Sac” value (deep endometriosis [4]; [13]) of the same compound?
**A.** 7 cases

**Q.** And the menstrual pain disappeared (deep endometriosis [4]; [13])?
**A.** 4 cases

**Q.** What about the menstrual pain improved (deep endometriosis [4]; [13]) of the same compound?
**A.** 13 cases

**Q.** What about the menstrual pain null (deep endometriosis [4]; [13]) of the same compound?
**A.** one

**Q.** What about the “nullity (no effect) on pressure pain and induration in Cul-de-Sac” value (deep endometriosis [4]; [13]) of the same compound?
**A.** 2 cases

**Q.** And the “disappearance of pressure pain and induration in Cul-de-Sac” value (deep endometriosis [4]; vaginal ring containing 8 to 10 mg for 3 months)?
**A.** 9 cases

**Q.** What about the menstrual pain disappeared (uterine adenomyosis [5]; [14]) of the same compound?
**A.** eight

**Q.** What about the menstrual pain improved (uterine adenomyosis [5]; [14]) of the same compound?
**A.** four

**Q.** And the therapeutic effect (uterine adenomyosis [5]; [14])?
**A.** in all the cases, therapeutic effect was recognized

**Q.** And the hypermenorrhea disappeared (uterine adenomyosis [5]; IUD containing 600 μg to 900 μg, 6 months, 12 cases recurring after GnRH analogs)?
**A.** nine

**Q.** With `C#C[C@]1(O)CC[C@H]2[C@@H]3CCC4=Cc5oncc5C[C@]4(C)[C@H]3CC[C@@]21C` [danazol, reference compound] as the compound, how does the “CA125 in the blood” value (deep endometriosis [3]; patient, vaginal ring containing 1,000 mg danazol for 6 months, from 950 units) read?
**A.** 620 units

**Q.** And the menstrual pain (deep endometriosis [3]; [15])?
**A.** reduced but not fully cured

**Q.** What about the “painful induration in Cul-de-Sac” value (deep endometriosis [3]; [15]) of the same compound?
**A.** not scaled down

**Q.** What about the uterine adenomyosis outcome (uterine adenomyosis [5]; earlier treatment with IUDs containing danazol, the 55 cases) of the same compound?
**A.** not cured
